Key:
[1] = test system: Escherichia coli strain WP2 uvrA pKM101; assay: Bacterial mutation test, Escherichia coli; format: cell-based; conditions: up to 5000 μg/plate, absence and presence of rat liver S-9
Experimental: These conditions included treatments at concentrations up to 5000 μg/plate (the maximum recommended concentration according to current regulatory guidelines), in the absence and in the presence of a rat liver metabolic activation system (S-9).

[2] = test system: patients with treatment-resistant major depressive disorder (TRD); assay: Phase 1/2 clinical trial of inhaled 5-MeO-DMT in TRD: BPRS items; format: in vivo, human; conditions: for BPRS Emotional Withdrawal score: baseline 13
Excerpt: Patients were assigned to different groups.
The BPRS item that is of particular relevance to negative thinking is “guilt feelings”. This item relates to over concern or remorse for past behaviour. Possible scores are: • 1—No guilt feelings. • 2—Very Mild. Concerned about having failed someone or at something but not preoccupied. Can shift thoughts to other matters easily. • 3—Mild. Concerned about having failed someone or at something with some preoccupation. Tends to voice guilt to others. • 4—Moderate. Disproportionate preoccupation with guilt, having done wrong, injured others by doing or failing to do something, but can readily turn attention to other things. • 5—Moderately Severe. Preoccupation with guilt, having failed someone or at something, can turn attention to other things, but only with great effort. Not delusional. • 6—Severe; Delusional guilt or unreasonable self-reproach very out of proportion to circumstances. Moderate preoccupation present. • 7—Extremely Severe. Delusional guilt or unreasonable self-reproach grossly out of proportion to circumstances. Subject is very preoccupied with guilt and is likely to disclose to others or act on delusions.
This trial was designed in two parts.

[3] = test system: patients with treatment-resistant major depressive disorder (TRD); assay: Phase 1/2 clinical trial of inhaled 5-MeO-DMT in TRD: safety and tolerability
Experimental: This trial was designed in two parts. Part A was an open-label, single-arm, single-dose Phase 1 trial with two dose levels (12 mg (n=4) and 18 mg (n=4)). […] The primary endpoint of Part B was to assess the effects on the severity of depression, as assessed by the proportion of patients in remission on day seven after dosing, defined as a MADRS total score of less than or equal to 10.

[4] = 12 mg n=4 sum, 3 h after dose vs baseline
[5] = 12 mg n=4 sum, Day 1 vs baseline
[6] = 12 mg n=4 sum, Day 7 vs baseline
[7] = IDR n=8 sum, 3 h after last dose vs baseline

## COc1ccc2[nH]cc(CCN(C)C)c2c1 [5-MeO-DMT]
[1]
  induction of mutation: did not induce mutation
[2]; [4]
  BPRS Anxiety improvement: 14
  BPRS Blunted Affect improvement: 3
  BPRS Emotional Withdrawal improvement: 2
  BPRS Guilt Feelings improvement: 9
  BPRS Guilt Feelings percentage improvement: 50.00%
  BPRS Tension improvement: 5
[2]; 12 mg n=4 sum, 3 h after dose, baseline 11
  BPRS Blunted Affect score: 8
[2]; 12 mg n=4 sum, 3 h after dose
  BPRS Emotional Withdrawal score: 11
[2]; 12 mg n=4 sum, 3 h after dose, baseline 14
  BPRS Tension score: 9
[2]; 12 mg n=4 sum, 3 h after dose, baseline 18
  BPRS Guilt Feelings score: 9
[2]; 12 mg n=4 sum, 3 h after dose, baseline 25
  BPRS Anxiety score: 11
[2]; 12 mg n=4 sum, Day 1, baseline 11
  BPRS Blunted Affect score: 6
[2]; 12 mg n=4 sum, Day 1
  BPRS Emotional Withdrawal score: 8
[2]; 12 mg n=4 sum, Day 1, baseline 14
  BPRS Tension score: 6
[2]; 12 mg n=4 sum, Day 1, baseline 18
  BPRS Guilt Feelings score: 5
[2]; 12 mg n=4 sum, Day 1, baseline 25
  BPRS Anxiety score: 6
[2]; [5]
  BPRS Anxiety improvement: 19
  BPRS Blunted Affect improvement: 5
  BPRS Emotional Withdrawal improvement: 5
  BPRS Guilt Feelings improvement: 13
  BPRS Tension improvement: 8
[2]; 12 mg n=4 sum, Day 7, baseline 11
  BPRS Blunted Affect score: 5
[2]; 12 mg n=4 sum, Day 7
  BPRS Emotional Withdrawal score: 6
[2]; 12 mg n=4 sum, Day 7, baseline 14
  BPRS Tension score: 6
[2]; 12 mg n=4 sum, Day 7, baseline 18
  BPRS Guilt Feelings score: 5
[2]; 12 mg n=4 sum, Day 7, baseline 25
  BPRS Anxiety score: 6
[2]; [6]
  BPRS Anxiety improvement: 19
  BPRS Blunted Affect improvement: 6
  BPRS Emotional Withdrawal improvement: 7
  BPRS Guilt Feelings improvement: 13
  BPRS Tension improvement: 8
[2]; [7]
  BPRS Anxiety improvement: 18
  BPRS Blunted Affect improvement: 4
  BPRS Emotional Withdrawal improvement: 5
  BPRS Guilt Feelings improvement: 20
  BPRS Tension improvement: 5
[2]; IDR n=8 sum, 3 h after last dose
  BPRS Emotional Withdrawal score: 8
[2]; IDR n=8 sum, 3 h after last dose, baseline 15
  BPRS Blunted Affect score: 11
[2]; IDR n=8 sum, 3 h after last dose, baseline 16
  BPRS Tension score: 11
[2]; IDR n=8 sum, 3 h after last dose, baseline 34
  BPRS Guilt Feelings score: 14
[2]; IDR n=8 sum, 3 h after last dose, baseline 37
  BPRS Anxiety score: 19
[2]; IDR n=8 sum, Day 1
  BPRS Emotional Withdrawal score: 8
[2]; IDR n=8 sum, Day 1, baseline 15
  BPRS Blunted Affect score: 8
[2]; IDR n=8 sum, Day 1, baseline 16
  BPRS Tension score: 11
[2]; IDR n=8 sum, Day 1, baseline 34
  BPRS Guilt Feelings score: 11
[2]; IDR n=8 sum, Day 1, baseline 37
  BPRS Anxiety score: 16
[2]; IDR n=8 sum, Day 1 vs baseline
  BPRS Anxiety improvement: 21
  BPRS Blunted Affect improvement: 7
  BPRS Emotional Withdrawal improvement: 5
  BPRS Guilt Feelings improvement: 23
  BPRS Tension improvement: 5
[2]; IDR n=8 sum, Day 7
  BPRS Emotional Withdrawal score: 8
[2]; IDR n=8 sum, Day 7, baseline 15
  BPRS Blunted Affect score: 8
[2]; IDR n=8 sum, Day 7, baseline 16
  BPRS Tension score: 10
[2]; IDR n=8 sum, Day 7, baseline 34
  BPRS Guilt Feelings score: 10
[2]; IDR n=8 sum, Day 7, baseline 37
  BPRS Anxiety score: 17
[2]; IDR n=8 sum, Day 7 vs baseline
  BPRS Anxiety improvement: 20
  BPRS Blunted Affect improvement: 7
  BPRS Emotional Withdrawal improvement: 5
  BPRS Guilt Feelings improvement: 24
  BPRS Tension improvement: 6
[3]; Part A and Part B
  changes in safety laboratory analyses, vital signs, psychiatric safety assessments or measures of cognitive function: No clinically significant changes
[3]; Part A, 12 mg and 18 mg groups
  severity and outcome of ADRs: mild and resolved spontaneously
[3]; Part A, 12 mg single dose, n=4
  patients experiencing at least one ADR: 3 of 4
[3]; Part A, 18 mg single dose, n=4
  patients experiencing at least one ADR: 3 of 4
[3]; Part B, IDR
  SAEs: No SAEs were reported
  outcome of ADRs: All ADRs resolved spontaneously
[3]; Part B, IDR, 7 of 8 patients
  patients experiencing at least one ADR: 87.5%

From US20250205256A1 (GH RESEARCH IRELAND LIMITED, priority 2022, published 2025)
